{"source": "PubChem BioAssay AID1963828", "about": "(Molecular Pharmacology Branch, DTP, NCI, 2024)", "test_system": "991263-137-R1-J2-PDC complex spheroid viability", "assay": "Anticancer human tumor 991263-137-R1-J2-PDC patient-derived colon adenocarcinoma cell line growth inhibition [POLQ]", "conditions": "for viability, T/C: stronger effect = lower value", "protocol": "Multicellular complex tumor spheroid response to Polymerase (POL) inhibitors (novobiocin, ART-558, RP6685) in combination with a variety of drugs and investigational agents in selected tumor cell lines\nThe POL inhibitors (novobiocin, ART-558, and RP6685) were evaluated both individually and in combination with standard of care and investigational anticancer small molecules within a complex spheroid model of solid tumors. . Complex spheroids include a stromal component modeled by human endothelial cells (HUVEC) and fibroblasts modeled by human mesenchymal stem cells (MSCs). The concentration ranges selected for each drug and investigational agent were based upon clinically achievable concentrations if the clinical Cmax of the agent was known.\nCompounds. The drugs and investigational agents: novobiocin (NSC847541), ART-558 (NSC835418), RP-6685 (NSC848927), peposertib (NSC802822), ceralasertib (NSC780249), elimusertib (NSC800525), camonsertib (NSC841442), AZD-1390 (NSC803789), olaparib (NSC753686), talazoparib (NSC767125), rucaparib (NSC756644), sotorasib (NSC818433), MRTX-1133 (NSC836407), SN-38 (NSC673596), topotecan (NSC609699), epotoside (NSC141540), doxorubicin (NSC123127), gemcitabine (NSC613327), 5-fluorouracil (NSC19893), paclitaxel (NSC125973), vemurafenib (NSC761431), MSA-2 (NSC828583), SN-011 (NSC837082), adavosertib (NSC754352), prexasertib (NSC758257), carboplatin (NSC241240) and oxaliplatin (NSC266046), were obtained from the National Cancer Institute (NCI) Developmental Therapeutics Program Chemical Repository (21). The FDA-approved anticancer drug set is available from the Developmental Therapeutics Program at https://dtp.cancer.gov/organization/dscb/obtaining/. […] The stock solutions were prepared in dimethyl sulfoxide (DMSO, Sigma-Aldrich, St. Louis, MO, cat. D2650), except for the platinum compounds which were prepared in saline (Quality Biological, Gaithersburg, MD, cat. 114-055-101), at 800-fold the tested concentration and stored at -70 degrees C prior to their use. All drugs and investigational agents were tested over a range starting from a high concentration at or near the clinical Cmax and decreasing in half-log increments. If the clinical Cmax for an agent had not been determined, the highest concentration tested was 10 microM, except for SN-38, which was tested at a high concentration of 1 microM.\nCell Culture. All cells were maintained in an incubator at 37 degrees C and 5% CO2 with 95% humidity. The PDC lines were cultured according to standard operating procedures established by the NCI PDMR (https://pdmr.cancer.gov). Table 3 of the manuscript, lists the cell lines along with the number of the three cell types plated to form the mct-spheroids and media for tumor cell growth. After thawing, all PDC lines, except 997537-175-T-J1-PDC and 415267-285-R-J2-PDC, were cultured in Matrigel-coated flasks prepared with a working solution of 1X Ham's F-12 nutrient mix, without supplementation (Thermo Fisher Scientific, cat. 11765054), 100 U/mL penicillin-streptomycin (Thermo Fisher Scientific, cat. 15140122), and 2.5% Matrigel (Corning Inc., Corning, NY, cat. 354248) for the first three passages. The two PDC lines 997537-175-T-J1-PDC and 415267-285-R-J2-PDC were cultured on uncoated flasks. The 857933-349-R-J2-PDC line was cultured in 6C/Colon 1B media containing advanced DMEM/F-12 (Thermo Fisher Scientific, cat. 12634028), 10 mM HEPES (Thermo Fisher Scientific, cat. 15630080), 1X GlutaMAX supplement (Thermo Fisher Scientific, cat. 35050061), 0.1 mg/mL primocin (InvivoGen, San Diego, CA, cat. ant-pm-2), 10% defined fetal bovine serum, heat inactivated (HyClone Laboratories Inc., Logan, UT, cat. SH30070.03HI), 50% L-WRN conditioned media (ATCC, cat. CRL-3276), 1.25 mM N-Acetyl-L-cysteine (Sigma-Aldrich, cat. A9165), 10 mM nicotinamide (Sigma-Aldrich, cat. N0636), 1X B-27 supplement (Thermo Fisher Scientific, cat. 17504044), 1X N-2 supplement (Thermo Fisher Scientific, cat. […]", "note": "Several values for one entry are separate records, joined by “and”; a condition that tells them apart may be missing. Identical values can stand only once.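 Further: spheroids exposed to compounds for 7 days before readout.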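 Wherever viability, T/C is given: 100% = DMSO vehicle control viability.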"}
{"smiles": "CC1COCCN1c1cc(-c2ccnn2C)c2ccnc(-c3ccn[nH]3)c2n1", "note": "(centres undefined) + Cc1cccc(N(C)C(=O)C2C(O)CCN2c2nc(C)cc(C(F)(F)F)c2C#N)c1", "values": [{"measurement": "IC50", "setting": "curve of first compound, second compound 0.0316 µM", "result": 948, "unit": "nM"}, {"measurement": "IC50", "setting": "curve of first compound, second compound 0.1 µM", "result": 1000, "unit": "nM"}, {"measurement": "IC50", "setting": "curve of first compound, second compound 0.316 µM", "result": 770, "unit": "nM"}, {"measurement": "IC50", "setting": "curve of first compound, second compound 1 µM", "result": 990, "unit": "nM"}, {"measurement": "IC50", "setting": "curve of first compound, second compound 3.16 µM", "result": 1430, "unit": "nM"}, {"measurement": "IC50", "setting": "curve of first compound, second compound 10 µM", "result": 851, "unit": "nM"}, {"measurement": "viability, T/C", "setting": "second compound 0.0316 µM, first compound 0.0316 µM", "result": 99.7, "unit": "%"}, {"measurement": "viability, T/C", "setting": "second compound 0.0316 µM, first compound 0.1 µM", "result": 96.8, "unit": "%"}, {"measurement": "viability, T/C", "setting": "second compound 0.0316 µM, first compound 0.316 µM", "result": 81.5, "unit": "%"}, {"measurement": "viability, T/C", "setting": "second compound 0.0316 µM, first compound 1 µM", "result": 47.6, "unit": "%"}, {"measurement": "viability, T/C", "setting": "second compound 0.0316 µM, first compound 3.16 µM", "result": 36.2, "unit": "%"}, {"measurement": "viability, T/C", "setting": "second compound 0.0316 µM, first compound 10 µM", "result": 29.4, "unit": "%"}, {"measurement": "viability, T/C", "setting": "second compound 0.1 µM, first compound 0.0316 µM", "result": 125, "unit": "%"}, {"measurement": "viability, T/C", "setting": "second compound 0.1 µM, first compound 0.1 µM", "result": 97.6, "unit": "%"}, {"measurement": "viability, T/C", "setting": "second compound 0.1 µM, first compound 0.316 µM", "result": 81.8, "unit": "%"}, {"measurement": "viability, T/C", "setting": "second compound 0.1 µM, first compound 1 µM", "result": 45.2, "unit": "%"}, {"measurement": "viability, T/C", "setting": "second compound 0.1 µM, first compound 3.16 µM", "result": 35.7, "unit": "%"}, {"measurement": "viability, T/C", "setting": "second compound 0.1 µM, first compound 10 µM", "result": 33.5, "unit": "%"}, {"measurement": "viability, T/C", "setting": "second compound 0.316 µM, first compound 0.0316 µM", "result": 94.4, "unit": "%"}, {"measurement": "viability, T/C", "setting": "second compound 0.316 µM, first compound 0.1 µM", "result": 110, "unit": "%"}, {"measurement": "viability, T/C", "setting": "second compound 0.316 µM, first compound 0.316 µM", "result": 75.4, "unit": "%"}, {"measurement": "viability, T/C", "setting": "second compound 0.316 µM, first compound 1 µM", "result": 44.3, "unit": "%"}, {"measurement": "viability, T/C", "setting": "second compound 0.316 µM, first compound 3.16 µM", "result": 35.1, "unit": "%"}, {"measurement": "viability, T/C", "setting": "second compound 0.316 µM, first compound 10 µM", "result": 28.8, "unit": "%"}, {"measurement": "viability, T/C", "setting": "second compound 1 µM, first compound 0.0316 µM", "result": 90.3, "unit": "%"}, {"measurement": "viability, T/C", "setting": "second compound 1 µM, first compound 0.1 µM", "result": 99.3, "unit": "%"}, {"measurement": "viability, T/C", "setting": "second compound 1 µM, first compound 0.316 µM", "result": 64.3, "unit": "%"}, {"measurement": "viability, T/C", "setting": "second compound 1 µM, first compound 1 µM", "result": 53.3, "unit": "%"}, {"measurement": "viability, T/C", "setting": "second compound 1 µM, first compound 3.16 µM", "result": 39.3, "unit": "%"}, {"measurement": "viability, T/C", "setting": "second compound 1 µM, first compound 10 µM", "result": 30.7, "unit": "%"}, {"measurement": "viability, T/C", "setting": "second compound 3.16 µM, first compound 0.0316 µM", "result": 88.8, "unit": "%"}, {"measurement": "viability, T/C", "setting": "second compound 3.16 µM, first compound 0.1 µM", "result": 114, "unit": "%"}, {"measurement": "viability, T/C", "setting": "second compound 3.16 µM, first compound 0.316 µM", "result": 89, "unit": "%"}, {"measurement": "viability, T/C", "setting": "second compound 3.16 µM, first compound 1 µM", "result": 58.2, "unit": "%"}, {"measurement": "viability, T/C", "setting": "second compound 3.16 µM, first compound 3.16 µM", "result": 32.9, "unit": "%"}, {"measurement": "viability, T/C", "setting": "second compound 3.16 µM, first compound 10 µM", "result": 31.6, "unit": "%"}, {"measurement": "viability, T/C", "setting": "second compound 10 µM, first compound 0.0316 µM", "result": 103, "unit": "%"}, {"measurement": "viability, T/C", "setting": "second compound 10 µM, first compound 0.1 µM", "result": 104, "unit": "%"}, {"measurement": "viability, T/C", "setting": "second compound 10 µM, first compound 0.316 µM", "result": 78.3, "unit": "%"}, {"measurement": "viability, T/C", "setting": "second compound 10 µM, first compound 1 µM", "result": 46, "unit": "%"}, {"measurement": "viability, T/C", "setting": "second compound 10 µM, first compound 3.16 µM", "result": 34.9, "unit": "%"}, {"measurement": "viability, T/C", "setting": "second compound 10 µM, first compound 10 µM", "result": 32.1, "unit": "%"}]}
{"smiles": "C#Cc1c(F)ccc2cc(O)cc(-c3ncc4c(N5CC6CCC(C5)N6)nc(OCC56CCCN5CC(F)C6)nc4c3F)c12", "note": "(centres undefined)", "values": [{"measurement": "viability, T/C", "setting": "compound 0.0316 µM", "result": "111% and 87.6% and 112%"}, {"measurement": "viability, T/C", "setting": "compound 0.1 µM", "result": "107% and 91.8% and 88.9%"}, {"measurement": "viability, T/C", "setting": "compound 0.316 µM", "result": "104% (2×) and 103%"}, {"measurement": "viability, T/C", "setting": "compound 1 µM", "result": "108% and 105% and 109%"}, {"measurement": "viability, T/C", "setting": "compound 3.16 µM", "result": "96.9% and 116% (2×)"}, {"measurement": "viability, T/C", "setting": "compound 10 µM", "result": "104% and 99.7% and 82.3%"}, {"measurement": "IC50", "setting": "curve of compound", "result": "> 10000", "unit": "nM"}]}
